Test results from patent publication US8273774B2, “Phenoxypyridinylamide compounds” (AstraZeneca AB, priority 2008, dated 2012).

Molecular target: recombinant Human Phosphodiesterase B2 (PDE4B2) (Homo sapiens, UniProt Q07343)
Experiment: Human Phosphodiesterase B2 Radiometric Assay
Type: biochemical
Settings: 0.1 μg/mL recombinant PDE4B2; preincubated at 30 C for 30 min; [3H]cyclic AMP 8 nM, stopped after 20 min; yttrium silicate SPA beads; read-out: PDE4B2 pIC50 (converted)
How it was run: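 Compounds preincubated 30 min at 30 C with 0.1 μg/mL recombinant PDE4B2 in 50 mM HEPES pH 7.5, 8.3 mM MgCl2, 1.7 mM EGTA, 0.01% Brij 35.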

Sequence of recombinant Human Phosphodiesterase B2 (PDE4B2) (Q07343 1-564 isoform Q07343-2): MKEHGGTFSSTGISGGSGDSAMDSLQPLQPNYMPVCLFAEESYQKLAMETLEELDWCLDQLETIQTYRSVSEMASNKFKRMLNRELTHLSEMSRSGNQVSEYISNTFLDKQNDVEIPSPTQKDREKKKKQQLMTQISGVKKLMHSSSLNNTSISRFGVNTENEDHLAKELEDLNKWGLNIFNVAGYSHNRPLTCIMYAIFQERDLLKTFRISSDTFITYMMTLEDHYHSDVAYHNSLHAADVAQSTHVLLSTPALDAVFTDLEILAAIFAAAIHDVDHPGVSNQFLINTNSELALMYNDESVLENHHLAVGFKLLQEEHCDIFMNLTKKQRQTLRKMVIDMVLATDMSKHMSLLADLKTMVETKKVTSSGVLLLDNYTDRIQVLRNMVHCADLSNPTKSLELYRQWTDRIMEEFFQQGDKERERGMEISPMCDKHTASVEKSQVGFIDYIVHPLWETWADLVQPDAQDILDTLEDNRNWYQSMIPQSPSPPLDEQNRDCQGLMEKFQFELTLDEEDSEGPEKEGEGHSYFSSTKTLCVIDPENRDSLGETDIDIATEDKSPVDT

Row | SMILES | IC50 [nM]
1 | Cc1cc(C)n2nc(C(=O)N[C@H]3CC[C@@H](NC(=O)c4cc(F)cnc4Oc4cccc(-c5ccc(CN6CCCN(CCO)CC6)cc5CN5CCOC[C@@H]5C)c4)CC3)cc2n1 [Example 179, N-((1s,4s)-4-(5-Fluoro-2-(4′-((4-(2-hydroxyethyl)-1,4-diazepan-1-yl)methyl)-2′-(((S)-3-methylmorpholino)methyl)biphenyl-3-yloxy)nicotinamido)cyclohexyl)-5,7-dimethylpyrazolo[1,5-a]pyrimidine-2-carboxamide] | 0.0501
2 | C[C@H]1COCCN1Cc1cc(CN2CCCN(CCO)CC2)ccc1-c1cccc(Oc2ncc(F)cc2C(=O)N[C@H]2CC[C@@H](NC(=O)c3cccc4[nH]cnc34)CC2)c1 [Example 180, N-((1s,4s)-4-(5-Fluoro-2-(4′-((4-(2-hydroxyethyl)-1,4-diazepan-1-yl)methyl)-2′-(((S)-3-methylmorpholino)methyl)biphenyl-3-yloxy)nicotinamido)cyclohexyl)-1H-benzo[d]imidazole-4-carboxamide] | 0.0158
3 | CCCN1CCN(Cc2ccc(-c3cccc(Oc4ncc(F)cc4C(=O)N[C@H]4CC[C@@H](NC(=O)c5cc(C)n(C)n5)CC4)c3)c(CN3CCOCC3)c2)CC1 [Example 181, N-((1s,4s)-4-(1,5-Dimethyl-1H-pyrazole-3-carboxamido)cyclohexyl)-5-fluoro-2-(2′-(morpholinomethyl)-4′-((4-propylpiperazin-1-yl)methyl)biphenyl-3-yloxy)nicotinamide] | 0.251
4 | Cc1cc(C)n2ncc(C(=O)N[C@H]3CC[C@@H](NC(=O)c4cc(F)cnc4Oc4cccc(-c5ccc(CN6CCCN(CCO)CC6)cc5CN5CCSCC5)c4)CC3)c2n1 [Example 182, N-((1s,4s)-4-(5-Fluoro-2-(4′-((4(2-hydroxyethyl)-1,4-diazepan-1-yl)methyl)-2′-(thiomorpholinomethyl)biphenyl-3-yloxy)nicotinamido)cyclohexyl)-5,7-dimethylpyrazolo[1,5-a]pyrimidine-3-carboxamide] | 0.0398
5 | Cc1cc(C(=O)N[C@H]2CC[C@@H](NC(=O)c3cc(F)cnc3Oc3cccc(-c4ccc(CN5CCN(C(C)C)CC5)cc4CN4CCOCC4)c3)CC2)nn1C [Example 183, N-((1s,4s)-4-(1,5-Dimethyl-1H-pyrazole-3-carboxamido)cyclohexyl)-5-fluoro-2-(4′-((4-isopropylpiperazin-1-yl)methyl)-2′-(morpholinomethyl)biphenyl-3-yloxy)nicotinamide] | 0.2
6 | Cc1cccc2nc(C(=O)N[C@H]3CC[C@@H](NC(=O)c4cc(F)cnc4Oc4cccc(-c5ccc(CN6CCCN(C)CC6)cc5CN5CCOCC5)c4)CC3)cn12 [Example 185, N-((1s,4s)-4-(5-Fluoro-2-(4′-((4-methyl-1,4-diazepan-1-yl)methyl)-2′-(morpholinomethyl)biphenyl-3-yloxy)nicotinamido)cyclohexyl)-5-methylimidazo[1,2-a]pyridine-2-carboxamide] | 0.02
7 | C[C@@H]1CN(Cc2ccc(-c3cccc(Oc4ncc(F)cc4C(=O)N[C@H]4CC[C@@H](NC(=O)c5cc6n(n5)CCCC6)CC4)c3)c(CN3CCSCC3)c2)C[C@H](C)N1 [Example 188, N-((1s,4s)-4-(2-(4′-(((3S,5R)-3,5-dimethylpiperazin-1-yl)methyl)-2′-(thiomorpholinomethyl)biphenyl-3-yloxy)-5-fluoronicotinamido)cyclohexyl)-4,5,6,7-tetrahydropyrazolo[1,5-a]pyridine-2-carboxamide] | 0.02
8 | Cc1nc(C(=O)N[C@H]2CC[C@@H](NC(=O)c3cc(F)cnc3Oc3cccc(-c4ccc(CN5C[C@@H](C)N[C@@H](C)C5)cc4CN4CCSCC4)c3)CC2)cs1 [Example 189, N-((1s,4s)-4-(2-(4′-(((3S,5R)-3,5-dimethylpiperazin-1-yl)methyl)-2′-(thiomorpholinomethyl)biphenyl-3-yloxy)-5-fluoronicotinamido)cyclohexyl)-2-methylthiazole-4-carboxamide] | 0.0158
9 | CC(C)c1nc(C(=O)N[C@H]2CC[C@@H](NC(=O)c3cc(F)cnc3Oc3cccc(-c4ccc(CN5C[C@@H](C)N[C@@H](C)C5)cc4CN4CCOCC4)c3)CC2)cs1 [Example 190, N-((1s,4s)-4-(2-(4′-(((3S,5R)-3,5-dimethylpiperazin-1-yl)methyl)-2′-(morpholinomethyl)biphenyl-3-yloxy)-5-fluoronicotinamido)cyclohexyl)-2-isopropylthiazole-4-carboxamide] | 0.0398
10 | C[C@@H]1CN(Cc2ccc(-c3cccc(Oc4ncc(F)cc4C(=O)N[C@H]4CC[C@@H](NC(=O)c5cc(C(F)(F)F)n(C)n5)CC4)c3)c(CN3CCSCC3)c2)C[C@H](C)N1 [Example 191, 2-(4′-(((3S,5R)-3,5-dimethylpiperazin-1-yl)methyl)-2′-(thiomorpholinomethyl)biphenyl-3-yloxy)-5-fluoro-N-((1s,4s)-4-(1-methyl-5-(trifluoromethyl)-1H-pyrazole-3-carboxamido)cyclo-hexyl)nicotinamide] | 0.02
11 | Cc1cc(C)n2ncc(C(=O)N[C@H]3CC[C@@H](NC(=O)c4cc(F)cnc4Oc4cccc(-c5ccc(CN6C[C@@H](C)N[C@@H](C)C6)cc5CN5CCSCC5)c4)CC3)c2n1 [Example 193, N-((1s,4s)-4-(2-(4′-(((3S,5R)-3,5-dimethylpiperazin-1-yl)methyl)-2′-(thiomorpholinomethyl)biphenyl-3-yloxy)-5-fluoronicotinamido)cyclohexyl)-5,7-dimethylpyrazolo[1,5-a]pyrimidine-3-carboxamide] | 0.0251

Second part, the molecule after the results:

Row | IC50 [nM] | SMILES
12 | 0.0398 | Cc1csc(C(=O)N[C@H]2CC[C@@H](NC(=O)c3cc(F)cnc3Oc3cccc(-c4ccc(CCN5CCNCC5)cc4)c3)CC2)n1 [Example 184, N-((1s,4s)-4-(5-Fluoro-2-(4′-(2-(piperazin-1-yl)ethyl)biphenyl-3-yloxy)nicotinamido)cyclohexyl)-4-methylthiazole-2-carboxamide]
13 | 0.0398 | O=C(N[C@H]1CC[C@@H](NC(=O)c2cc(F)cnc2Oc2cccc(-c3ccc(CCN4CCNCC4)cc3)c2)CC1)c1cnc2ccccc2n1 [Example 186, N-((1s,4s)-4-(5-Fluoro-2-(4′-(2-(piperazin-1-yl)ethyl)biphenyl-3-yloxy)nicotinamido)cyclohexyl)quinoxaline-2-carboxamide]
14 | 0.2 | O=C(NC1CCC(NC(=O)c2cc(F)cnc2Oc2cccc(-c3ccc(CCCN4CCNCC4)cc3)c2)CC1)c1nc(CO)cs1 (stereo not shown) [Example 187, N-((1s,4s)-4-(5-Fluoro-2-(4′-(3-(piperazin-1-yl)propyl)biphenyl-3-yloxy)nicotinamido)cyclohexyl)-4-(hydroxymethyl)thiazole-2-carboxamide]
15 | 0.02 | Cc1csc(C(=O)N[C@H]2CC[C@@H](NC(=O)c3cc(F)cnc3Oc3cccc(-c4ccc(CN5C[C@@H](C)N[C@@H](C)C5)cc4CN4CCSCC4)c3)CC2)n1 [Example 192, N-((1s,4s)-4-(2-(4′-(((3S,5R)-3,5-dimethylpiperazin-1-yl)methyl)-2′-(thiomorpholinomethyl)biphenyl-3-yloxy)-5-fluoronicotinamido)cyclohexyl)-4-methylthiazole-2-carboxamide]
16 | 0.0316 | Cc1csc(C(=O)N[C@H]2CC[C@@H](NC(=O)c3cc(F)cnc3Oc3cccc(-c4ccc(CN5C[C@@H](C)N[C@@H](C)C5)cc4CN4CCOC[C@@H]4C)c3)CC2)n1 [Example 194, N-((1s,4s)-4-(2-(4′-(((3S,5R)-3,5-dimethylpiperazin-1-yl)methyl)-2′-(((S)-3-methylmorpholino)methyl)biphenyl-3-yloxy)-5-fluoronicotinamido)cyclohexyl)-4-methylthiazole-2-carboxamide]
